The first test deals with T1, TLR9 (Homo sapiens, UniProt Q9NR96).
T1 construct: expressed in transfected cells; host or cells: NIH 3T3 fibroblasts (mouse), stably transfected, NF-kB driven SEAP reporter
T1 sequence (Q9NR96 26-1032): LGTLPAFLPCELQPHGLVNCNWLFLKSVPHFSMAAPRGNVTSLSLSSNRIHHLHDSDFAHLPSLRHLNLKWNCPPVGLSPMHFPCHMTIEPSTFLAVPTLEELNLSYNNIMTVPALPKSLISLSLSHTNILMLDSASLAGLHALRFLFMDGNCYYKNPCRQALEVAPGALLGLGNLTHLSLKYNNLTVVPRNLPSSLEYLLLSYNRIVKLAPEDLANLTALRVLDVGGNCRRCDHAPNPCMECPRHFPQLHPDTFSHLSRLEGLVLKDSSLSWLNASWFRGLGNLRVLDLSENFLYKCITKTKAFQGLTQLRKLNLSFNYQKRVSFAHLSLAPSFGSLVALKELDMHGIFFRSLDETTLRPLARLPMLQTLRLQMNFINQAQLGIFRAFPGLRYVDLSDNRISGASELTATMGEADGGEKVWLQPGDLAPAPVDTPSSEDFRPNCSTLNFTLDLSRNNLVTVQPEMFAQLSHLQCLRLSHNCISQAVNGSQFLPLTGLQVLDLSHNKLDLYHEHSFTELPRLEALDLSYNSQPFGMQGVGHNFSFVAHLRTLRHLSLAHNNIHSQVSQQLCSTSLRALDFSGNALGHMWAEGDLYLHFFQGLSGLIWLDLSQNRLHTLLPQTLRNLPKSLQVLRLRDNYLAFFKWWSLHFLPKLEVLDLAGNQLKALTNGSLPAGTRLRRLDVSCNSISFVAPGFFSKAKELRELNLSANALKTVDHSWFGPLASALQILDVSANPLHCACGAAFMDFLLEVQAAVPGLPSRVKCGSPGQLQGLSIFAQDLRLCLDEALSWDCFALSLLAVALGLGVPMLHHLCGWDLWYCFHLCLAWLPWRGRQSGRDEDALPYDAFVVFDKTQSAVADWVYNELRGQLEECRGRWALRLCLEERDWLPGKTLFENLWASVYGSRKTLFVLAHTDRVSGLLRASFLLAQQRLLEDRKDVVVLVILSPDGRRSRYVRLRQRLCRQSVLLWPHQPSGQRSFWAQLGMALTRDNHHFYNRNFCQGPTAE
The test can be described thus: cell-based reporter assay (NIH 3T3 reporter cell line expressing TLR9, NF-kB driven SEAP, stimulated with CpG ODN 2216). To be noted: FIG. 3; 5 μM ODN 2216, 0.12 μM-7.8 μM of antagonist. Here is the method: In context with the present invention, the ‘IC50 value’ is the half maximum inhibitory concentration which is a measure of the effectiveness of a substance inhibiting the function of the TLR9. The IC50 value can be determined by a functional antagonist assay or a competition binding assay. Preferably, the IC50 value is determined by the cell-based reporter assay in section 3, below, of the examples.
A cell based test-system that allows PAMPs to be identified and differentiated via pattern recognition receptors (PRRs) in a reporter gene assay was used (DE 10 2006 031 483, EP 2 041 172). For this assay human PRRs and co-receptors were stably transfected and expressed in NIH 3T3 fibroblasts. This cell line expresses no other PRRs and contains a reporter gene which is activated by PRR-activation. The induction of receptor complexes by their ligands leads, after a signalling cascade, to an activation of transcription factor NF-kB, which regulates the expression of an additional integrated reporter gene, a secreted alkaline phosphatase (SEAP) (Burger-Kentischer, A.; Abele, I. S.; Finkelmeier, D.; Wiesmüller, K.-H.; Rupp, S., A new cell-based innate immune receptor assay for the examination of receptor activity, ligand specificity, signalling pathways and the detection of pyrogens. J. Immunol. Methods 2010, 358 (1), 93-103).
This test system mimics elements of the innate human immune system and can selectively recognize a large number of PAMPs with high sensitivity. Consequently, the PRR-specific cell-based high-throughput feature of the reporter cell lines will provide a fast, flexible and convenient means for lead compound screening in the pharmaceutical drug development fields. For the in vitro screening of the top candidates identified at IDR, the Fraunhofer IGB used this cell-based reporter system to identify TLR9 antagonists in order to determine their activity as well their biocompatibility. Within a first step the NIH3T3 cell line expressing TLR9 was used to measure the inhibitory effect of the TLR9 antagonists.
For the experiment the reporter cell line expressing TL9 was plated in 96-well cell culture plates at a density of 0.3×10^5 cells in DMEM media supplemented with 10% FCS (Invitrogen), 1% L-glutamine (200 mM Invitrogen) and 1% Penicillin-Streptomycin (PenStrep: 100×, Invitrogen). The cells were incubated for 16 h to grow adherent monolayers at 37° C. in a 5% saturated CO2 humidified atmosphere. After overnight incubation, the media was removed and replaced by DMEM medium supplemented with 1% PenStrep, 1% L-glutamine and 0.5% FCS. The media change is important to avoid a unspecific background signal, caused by active remaining phosphatases present in the FCS. The cells are then stimulated with a specific ligand non-methylated CpG ODN 2216 agonist (Invivogen) and the potential antagonists using different concentrations, namely within a range of concentrations of the potential antagonists starting with 0.025 μM (for the antagonist with the highest activity) up to 14 mM for the antagonists with lowest activities.
The ODN ligand has the sequence 5′-ggGGGACGA:TCGTCgggggg-3′ (SEQ ID No. 1). Those represented by capital letters are phosphodiesters, and those in small letters are phosphorothioate. The Palindrome is underlined.
The cells were again incubated in a humidified atmosphere for 16h leading to the expression or reduced expression of SEAP and its secretion into the media. Binding of the antagonist leads to a block of the TLR9, resulting in no or in a reduced expression of the reporter gene (SEAP). Therefore, 50 μl supernatant were taken from the cells and transferred into a 96-well PS microplate flat bottom (Greiner BIO-ONE). The enzyme substrate reaction was initiated by adding 50 μl of the specific substrate. SEAP catalyses the hydrolysis of pNPP to the final product para-nitrophenol (yellow), which can be detected in a photometric analysis using an UV-VIS reader at 405 nm. […]
(A reporter such as luciferase makes a cellular process visible.)
Turning to `c1ccc(-n2cc(CNCCCN3CCOCC3)c(-c3cc4ccccc4o3)n2)cc1` [T5570245], the ODN2216 signal result is given as “dose dependent reduction of the signal”.

The same test, now with this note: FIG. 3; 5 μM ODN 2216, 0.12 μM-7.8 μM of antagonist; read-out: IC50 value.
The IC50 is the concentration needed to halve the response being measured. Consider `c1ccc(-n2cc(CNCCCN3CCOCC3)c(-c3cc4ccccc4o3)n2)cc1` [T5570245], for which the IC50 amounted to 0.8 µM.

Still in this test, the particulars now being: Table 5; first 30 candidates; ODN 2216 agonist; n≥3.
As for `Cc1ccc(N2CCN(/N=C/C=C/c3ccccc3)CC2)cc1` [T0505-2171, N(/N1CCN(CC1)c1ccc(cc1)C)═C\C═C\c1ccccc1], the “IC50 in [μM]” value is listed as “agonist”. The same measure, in the same setting: with `c1ccc(-c2cc(-c3cccnc3)nc3ccccc23)cc1` [T5762626, n1c2c(cccc2)c(cc1-c1cccnc1)-c1ccccc1] the entry was “agonist”.

The test is the same for the next values; noted with them: Table 5; first 30 candidates; ODN 2216 agonist; n≥3; read-out: IC50 in.
Regarding `COc1ccc(/N=C/c2ccc3ncccc3c2)cc1` [T0501-0693, O(C)c1ccc(\N═C\c2cc3c(nccc3)cc2)cc1], the 50% inhibitory concentration (IC50) was determined as 15.7 µM. On the same count and under the same terms, with `COc1ccc(/C=N/c2ccc3nc(C)ccc3c2)cc1` [T0501-1111, O(C)c1ccc(cc1)\C═N\c1cc2c(nc(cc2)C)cc1] the figure was 488 µM. On the same count and under the same terms, with `c1ccc(-c2cn3c(n2)CCc2ccc4cccnc4c2-3)cc1` [T0502-6934, n1c2n(cc1-c1ccccc1)-c1c(CC2)ccc2c1nccc2] the figure was 13200 µM; with `COc1ccc2nc3c(nc2c1)-c1cccc2cccc-3c12` [T0504-1221, O(C)c1cc2nc3-c4c5c(-c3nc2cc1)cccc5ccc4], 65.6 µM; with `c1ccc(-c2nc3ccccc3nc2-c2ccccc2)cc1` [T0504-1257, n1c2c(nc(c1-c1ccccc1)-c1ccccc1)cccc2], 1990 µM. Consider `CN(C)c1ccc(/C=C/c2ccc3ccccc3n2)cc1` [T0506-4124, n1c2c(ccc1\C═C\c1ccc(N(C)C)cc1)cccc2], for which the IC50 was determined as 312 µM. Consider `CCOc1ccccc1OCCOc1cccc2cccnc12` [T0513-2251, O(CCOc1c2ncccc2ccc1)c1ccccc1OCC], for which the IC50 was 1080 µM.

Regarding `COc1ccc2c(-c3ccccc3)cc(N3CCOCC3)nc2c1` [T0513-5752, O1CCN(CC1)c1nc2c(ccc(OC)c2)c(c1)-c1ccccc1], the IC50 was 7.77 µM. Take `COc1ccc(CCN(C)c2ncnc3c2oc2ccccc23)cc1OC` [T0519-4581, o1c2c(ncnc2N(CCc2cc(OC)c(OC)cc2)C)c2c1cccc2]: the IC50 turned out to be 15.1 µM.

Regarding `c1ccc(OCCn2c(-c3ccco3)nc3ccccc32)cc1` [T5456813, o1cccc1-c1nc2c(n1CCOc1ccccc1)cccc2], the IC50 is 73.2 µM. Still for that read-out and setting: with `C(=C\c1ccc2ccccc2n1)/c1ccc(-n2ccnc2)cc1` [T5500062, n1c2c(ccc1\C═C\c1ccc(-n3ccnc3)cc1)cccc2] the figure was 777 µM.

Consider `COc1ccccc1N1CCN(c2ccc3ccccc3n2)CC1` [T5547436, O(C)c1ccccc1N1CCN(CC1)c1nc2c(cc1)cccc2], for which the half-maximal inhibitory concentration (IC50) amounted to 1160 µM.

For `COc1ccc(CCNc2ncnc3c2oc2ccccc23)cc1OC` [T5666774, o1c2c(ncnc2NCCc2cc(OC)c(OC)cc2)c2c1cccc2], the IC50 is 30.3 µM. For `COc1cc(/C=C/c2ccc3ccccc3n2)cc(OC)c1` [T5702130, O(C)c1cc(cc(OC)c1)\C═C\c1nc2c(cc1)cccc2], the IC50 was found to be 7.27 µM. On the same count and under the same terms, with `COc1ccc(/C=C/c2ccc3ccccc3n2)c(OC)c1` [T5713724, O(C)c1cc(OC)ccc1\C═C\c1nc2c(cc1)cccc2] the figure was 15.9 µM; with `COc1ccc(-n2c(-c3ccncc3)nc3ccccc32)cc1` [T5771455, O(C)c1ccc(-n2c3c(nc2-c2ccncc2)cccc3)cc1], 11.9 µM. Still for that read-out and setting: with `COc1ccc(OCCOc2cccc3cccnc23)cc1` [T5771955, O(CCOc1ccc(OC)cc1)c1c2ncccc2ccc1] the figure was 650 µM; with `Cc1cc(-c2ccc(-n3ccnc3)cc2)nc2ccccc12` [T5803292, n1c2c(cccc2)c(cc1-c1ccc(-n2ccnc2)cc1)C], 4270 µM. Still for that read-out and setting: with `c1ccc2c(NCCNc3ncnc4ccccc34)cccc2c1` [T5807811, n1cnc2c(cccc2)c1NCCNc1c2c(ccc1)cccc2] the figure was 57 µM; with `COCCNc1ncnc2c1c(-c1ccccc1)cn2-c1ccc(OC)cc1` [T6015017, O(C)c1ccc(-n2cc(c3c2ncnc3NCCOC)-c2ccccc2)cc1], 2030 µM.

Staying with this test, now noted: in the presence of 5 μM of the ODN 2216 agonist; read-out: IC50 in.
As to `COc1ccc(CNc2nc3ccccc3n2CCN2CCCCC2)cc1OC` [T0503-2983], the concentration for half-maximal inhibition (IC50) was found to be 6.78 µM. On the same count and under the same terms, with `COc1cc(CNC2CCN(Cc3ccccc3)CC2)ccc1OCc1c(C)noc1C` [T5364934] the figure was 1.62 µM. On the same count and under the same terms, with `COc1cc(CN2CCN(CCN3CCCC3)CC2)ccc1OCc1ccc(Cl)cc1` [T5428933] the figure was 0.962 µM; with `c1ccc(CN2CCN(c3ccnc(N4CCN(Cc5ccccc5)CC4)n3)CC2)cc1` [T5453081], 1.6 µM.

Turning to `Clc1ccc(-c2nn(Cc3ccccc3)cc2CN2CCN(CCN3CCCC3)CC2)cc1` [T5535483], the concentration for half-maximal inhibition (IC50) was 3.82 µM. Same read-out and setting: with `c1ccc(-n2cc(CNCCCN3CCOCC3)c(-c3cc4ccccc4o3)n2)cc1` [T5570245] the figure was 0.815 µM. On the same count and under the same terms, with `COc1ccc(-c2nn(-c3ccccc3)cc2CNCc2ccccc2CN2CCOCC2)cc1` [T5571341] the figure was 3.14 µM; with `CN(C)CCCNCc1cn(-c2ccccc2)nc1-c1ccc2c(c1)OCCO2` [T5581953], 0.201 µM.

In the case of `CCN1CCC(NCc2cn(-c3ccccc3)nc2-c2ccc3c(c2)OCCO3)CC1` [T5581955], the half-inhibitory concentration (IC50) amounted to 1.44 µM. Still for that read-out and setting: with `c1ccc(-n2cc(CNCCN3CCCC3)c(-c3ccc4c(c3)OCCO4)n2)cc1` [T5581956] the figure was 3.16 µM; with `CCCN1CCC(NCc2cn(-c3ccccc3)nc2-c2ccc3c(c2)OCCO3)CC1` [T5587050], 1.87 µM; with `COc1ccc(CN2CCN(Cc3c(-c4ccccc4)nc4ccccn34)CC2)cc1OC` [T5635793], 6.32 µM. Same read-out and setting: with `COc1cc2nc(-c3ccccc3)nc(N3CCN(CCN4CCCC4)CC3)c2cc1OC` [T5669070] the figure was 0.0536 µM.

As to `CC(C)(c1ccccc1)c1ccc(OCCCNCCN2CCOCC2)cc1` [T5793071], the half-inhibitory concentration (IC50) is 6.43 µM. On the same count and under the same terms, with `CCN1CCC(NCc2ccc(-n3cnc4ccccc43)cc2)CC1` [T5820428] the figure was 1.78 µM. The same measure, in the same setting: with `COc1ccc(-c2nn(-c3ccccc3)cc2CNCc2ccccc2CN2CCOCC2)cc1OC` [T6083277] the figure was 7.51 µM.

Values taken from patent US11104677B2, “Toll-like receptor 9 antagonists” (FRAUNHOFER-GESELLSCHAFT ZUR FÖRDERUNG DER ANGEWANDTEN …, priority 2015, dated 2021).
